Laboratory results as given in US11572399B2, “Long-acting GIP peptide analogues” (University of Copenhagen, priority 2017, dated 2023).
Read-outs that look alike come from different tables or passages of the source. Peptide text beside a SMILES is read from it. * marks the point of attachment. C16 diacid = O=C(O)CCCCCCCCCCCCCCC(=O)*

Experiments:
human GIP receptor [1] = target: T1, human GIP receptor (Homo sapiens, UniProt P48546); test: cAMP accumulation assay, agonism (ligand alone); type: cell-based; settings: Table 1; for Emax: COS-7, intrinsic cAMP activity
T1 construct: host or cells: COS-7, transient transfection (calcium phosphate), cDNA in pCMV-Script
T1 sequence (P48546 22-466): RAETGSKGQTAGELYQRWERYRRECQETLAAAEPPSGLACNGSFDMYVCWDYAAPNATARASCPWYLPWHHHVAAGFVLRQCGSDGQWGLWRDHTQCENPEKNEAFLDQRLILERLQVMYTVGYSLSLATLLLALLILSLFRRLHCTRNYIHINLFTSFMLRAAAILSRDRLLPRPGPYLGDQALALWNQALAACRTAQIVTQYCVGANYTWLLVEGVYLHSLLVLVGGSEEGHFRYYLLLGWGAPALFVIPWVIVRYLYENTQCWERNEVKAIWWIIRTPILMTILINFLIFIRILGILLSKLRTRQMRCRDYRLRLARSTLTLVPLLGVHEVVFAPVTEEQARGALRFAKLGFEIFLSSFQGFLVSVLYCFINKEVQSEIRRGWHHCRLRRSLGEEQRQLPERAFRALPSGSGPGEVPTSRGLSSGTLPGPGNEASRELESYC

human GIP receptor [2] = target: T1, human GIP receptor; test: cAMP accumulation assay, antagonism of a GIP-mediated cAMP response (50-80% of max); type: cell-based; settings: for Fold change of IC50 versus GIP(5-30)NH2: fold change of IC50 from GIP(5-30)NH2
Experimental: The day after, the cells were washed twice with Hepes buffered saline (HBS) buffer and incubated with HBS and 1 mM 3-isobutyl-1-methylxanthine (IBMX) for 30 min at 37° C. […] The HitHunter™ cAMP XS assay (DiscoveRx) was carried out according to the manufacturer's instructions.

human GIP receptor [3] = target: T1, human GIP receptor; test: 125I-human GIP competition binding assay, in the presence and absence of 2% HSA; settings: for Fold change HSA (2%)/Casein (0.1%): IC50 (plus HSA)/IC50 (minus HSA); for Binding (+/−HSA) Fold: fold change +HSA/−HSA; for IC50: heterologous competition binding, transiently transfected COS-7 cells expressing the human GIP receptor, read-out: Binding;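 for all read-outs here: nonspecific binding taken as radioligand bound to untransfected cells, IC50 obtained from nonlinear regression fits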
[4] = transiently transfected COS-7 cells, Table 1 and text, read-out: cAMP antagonism nM (IC50, antagonistic potency)
[5] = given as log EC50 (negative sign), read-out: cAMP agonism EC50 (log) (converted)
[6] = antagonism of GIP-mediated cAMP response, COS-7 cells, read-out: cAMP accumulation IC50

CC[C@H](C)[C@H](NC(=O)[C@H](CO)NC(=O)[C@H](Cc1ccc(O)cc1)NC(=O)[C@H](CC(=O)O)NC(=O)[C@H](CO)NC(=O)[C@@H](NC(=O)[C@H](Cc1ccccc1)NC(=O)[C@@H](N)[C@@H](C)O)[C@@H](C)CC)C(=O)N[C@@H](C)C(=O)N[C@@H](CCSC)C(=O)N[C@@H](CC(=O)O)C(=O)N[C@@H](CCCCN)C(=O)N[C@H](C(=O)N[C@@H](Cc1c[nH]cn1)C(=O)N[C@@H](CCC(N)=O)C(=O)N[C@@H](CCCCNC(=O)CCCCCCCCCCCCCCC(=O)O)C(=O)N[C@@H](CC(=O)O)C(=O)N[C@@H](Cc1ccccc1)C(=O)N[C@H](C(=O)N[C@@H](CC(N)=O)C(=O)N[C@@H](Cc1c[nH]c2ccccc12)C(=O)N[C@@H](CC(C)C)C(=O)N[C@@H](CC(C)C)C(=O)N[C@@H](C)C(=O)N[C@@H](CCC(N)=O)C(=O)N[C@@H](CCCCN)C(N)=O)C(C)C)[C@@H](C)CC [AT180, [hGIP(5-30)NH2[Q20K]-C16diacid/20]] (H-TFISDYSIAMDKIHQK(C16 diacid)DFVNWLLAQK-NH2; N-terminus assumed)
Emax (human GIP receptor [1]; COS-7 cells): 0%
Fold change of IC50 versus GIP(5-30)NH2 (human GIP receptor [2]): 1.7
IC50 (human GIP receptor [2]; [4]): 37 nM
Fold change HSA (2%)/Casein (0.1%) (human GIP receptor [3]): 3.7
Binding (+/−HSA) Fold (human GIP receptor [3]): 6.4

CC[C@H](C)[C@H](NC(=O)[C@H](CO)NC(=O)[C@H](Cc1ccc(O)cc1)NC(=O)[C@H](CC(=O)O)NC(=O)[C@H](CO)NC(=O)[C@@H](NC(=O)[C@H](Cc1ccccc1)NC(=O)[C@@H](N)[C@@H](C)O)[C@@H](C)CC)C(=O)N[C@@H](C)C(=O)N[C@@H](CCSC)C(=O)N[C@@H](CC(=O)O)C(=O)N[C@@H](CCCCN)C(=O)N[C@H](C(=O)N[C@@H](Cc1c[nH]cn1)C(=O)N[C@@H](CCC(N)=O)C(=O)N[C@@H](CCC(N)=O)C(=O)N[C@@H](CCCCNC(=O)CCCCCCCCCCCCCCC(=O)O)C(=O)N[C@@H](Cc1ccccc1)C(=O)N[C@H](C(=O)N[C@@H](CC(N)=O)C(=O)N[C@@H](Cc1c[nH]c2ccccc12)C(=O)N[C@@H](CC(C)C)C(=O)N[C@@H](CC(C)C)C(=O)N[C@@H](C)C(=O)N[C@@H](CCC(N)=O)C(=O)N[C@@H](CCCCN)C(N)=O)C(C)C)[C@@H](C)CC [AT181, [hGIP(5-30)NH2[D21K]-C16diacid/21]] (H-TFISDYSIAMDKIHQQK(C16 diacid)FVNWLLAQK-NH2; N-terminus assumed)
Emax (human GIP receptor [1]; COS-7 cells): 9%
EC50 (human GIP receptor [1]; COS-7 cells, read-out: cAMP agonism nM (EC50)): 2 nM
Ability to antagonize the GIP-mediated cAMP response (in words) (human GIP receptor [2]): highest antagonistic potencies
Fold change of IC50 versus GIP(5-30)NH2 (human GIP receptor [2]): 0.5
IC50 (human GIP receptor [2]; [4]): 16 nM
Fold change HSA (2%)/Casein (0.1%) (human GIP receptor [3]): 5.2
Binding (+/−HSA) Fold (human GIP receptor [3]): 3.6
IC50 (human GIP receptor [3]): 0.048 µM
Fold change in affinity, IC50 (plus HSA)/IC50 (minus HSA) (human GIP receptor [3]; presence vs absence of 2% HSA, proxy for albumin binding): 5.2 fold

CC[C@H](C)[C@H](NC(=O)[C@H](CO)NC(=O)[C@H](Cc1ccc(O)cc1)NC(=O)[C@H](CC(=O)O)NC(=O)[C@H](CO)NC(=O)[C@@H](NC(=O)[C@H](Cc1ccccc1)NC(=O)[C@@H](N)[C@@H](C)O)[C@@H](C)CC)C(=O)N[C@@H](C)C(=O)N[C@@H](CCSC)C(=O)N[C@@H](CC(=O)O)C(=O)N[C@@H](CCCCN)C(=O)N[C@H](C(=O)N[C@@H](Cc1c[nH]cn1)C(=O)N[C@@H](CCC(N)=O)C(=O)N[C@@H](CCC(N)=O)C(=O)N[C@@H](CC(=O)O)C(=O)N[C@@H](CCCCNC(=O)CCCCCCCCCCCCCCC(=O)O)C(=O)N[C@H](C(=O)N[C@@H](CC(N)=O)C(=O)N[C@@H](Cc1c[nH]c2ccccc12)C(=O)N[C@@H](CC(C)C)C(=O)N[C@@H](CC(C)C)C(=O)N[C@@H](C)C(=O)N[C@@H](CCC(N)=O)C(=O)N[C@@H](CCCCN)C(N)=O)C(C)C)[C@@H](C)CC [AT182, [hGIP(5-30)NH2[F22K]-C16diacid/22]] (H-TFISDYSIAMDKIHQQDK(C16 diacid)VNWLLAQK-NH2; N-terminus assumed)
Emax (human GIP receptor [1]; COS-7 cells): 13%
EC50 (human GIP receptor [1]; [5]): 1000 nM
IC50 (human GIP receptor [2]; [6]): 603 nM
Fold change of IC50 versus GIP(5-30)NH2 (human GIP receptor [2]): 21.9
IC50 (human GIP receptor [2]; [4]): 634 nM
Fold change HSA (2%)/Casein (0.1%) (human GIP receptor [3]): 3.0
Binding (+/−HSA) Fold (human GIP receptor [3]): 1.4
IC50 (human GIP receptor [3]): 0.962 µM

CC[C@H](C)[C@H](NC(=O)[C@H](CO)NC(=O)[C@H](Cc1ccc(O)cc1)NC(=O)[C@H](CC(=O)O)NC(=O)[C@H](CO)NC(=O)[C@@H](NC(=O)[C@H](Cc1ccccc1)NC(=O)[C@@H](N)[C@@H](C)O)[C@@H](C)CC)C(=O)N[C@@H](C)C(=O)N[C@@H](CCSC)C(=O)N[C@@H](CC(=O)O)C(=O)N[C@@H](CCCCN)C(=O)N[C@H](C(=O)N[C@@H](Cc1c[nH]cn1)C(=O)N[C@@H](CCC(N)=O)C(=O)N[C@@H](CCC(N)=O)C(=O)N[C@@H](CC(=O)O)C(=O)N[C@@H](Cc1ccccc1)C(=O)N[C@@H](CCCCNC(=O)CCCCCCCCCCCCCCC(=O)O)C(=O)N[C@@H](CC(N)=O)C(=O)N[C@@H](Cc1c[nH]c2ccccc12)C(=O)N[C@@H](CC(C)C)C(=O)N[C@@H](CC(C)C)C(=O)N[C@@H](C)C(=O)N[C@@H](CCC(N)=O)C(=O)N[C@@H](CCCCN)C(N)=O)[C@@H](C)CC [AT183, [hGIP(5-30)NH2[V23K]-C16diacid/23]] (H-TFISDYSIAMDKIHQQDFK(C16 diacid)NWLLAQK-NH2; N-terminus assumed)
Emax (human GIP receptor [1]; COS-7 cells): 0%
Fold change of IC50 versus GIP(5-30)NH2 (human GIP receptor [2]): 55.0
Fold change HSA (2%)/Casein (0.1%) (human GIP receptor [3]): 1.8
Binding (+/−HSA) Fold (human GIP receptor [3]): 4.4

CC[C@H](C)[C@H](NC(=O)[C@H](CO)NC(=O)[C@H](Cc1ccc(O)cc1)NC(=O)[C@H](CC(=O)O)NC(=O)[C@H](CO)NC(=O)[C@@H](NC(=O)[C@H](Cc1ccccc1)NC(=O)[C@@H](N)[C@@H](C)O)[C@@H](C)CC)C(=O)N[C@@H](C)C(=O)N[C@@H](CCSC)C(=O)N[C@@H](CC(=O)O)C(=O)N[C@@H](CCCCN)C(=O)N[C@H](C(=O)N[C@@H](Cc1c[nH]cn1)C(=O)N[C@@H](CCC(N)=O)C(=O)N[C@@H](CCC(N)=O)C(=O)N[C@@H](CC(=O)O)C(=O)N[C@@H](Cc1ccccc1)C(=O)N[C@H](C(=O)N[C@@H](CCCCNC(=O)CCCCCCCCCCCCCCC(=O)O)C(=O)N[C@@H](Cc1c[nH]c2ccccc12)C(=O)N[C@@H](CC(C)C)C(=O)N[C@@H](CC(C)C)C(=O)N[C@@H](C)C(=O)N[C@@H](CCC(N)=O)C(=O)N[C@@H](CCCCN)C(N)=O)C(C)C)[C@@H](C)CC [AT184, [hGIP(5-30)NH2[N24K]-C16diacid/24]] (H-TFISDYSIAMDKIHQQDFVK(C16 diacid)WLLAQK-NH2; N-terminus assumed)
Emax (human GIP receptor [1]; COS-7 cells): 0%
Fold change of IC50 versus GIP(5-30)NH2 (human GIP receptor [2]): 3.9
Fold change HSA (2%)/Casein (0.1%) (human GIP receptor [3]): 1.6
Ki (human GIP receptor [3]; absence of HSA): 224 nM
Binding (+/−HSA) Fold (human GIP receptor [3]): 3.9

CC[C@H](C)[C@H](NC(=O)[C@H](CO)NC(=O)[C@H](Cc1ccc(O)cc1)NC(=O)[C@H](CC(=O)O)NC(=O)[C@H](CO)NC(=O)[C@@H](NC(=O)[C@H](Cc1ccccc1)NC(=O)[C@@H](N)[C@@H](C)O)[C@@H](C)CC)C(=O)N[C@@H](C)C(=O)N[C@@H](CCSC)C(=O)N[C@@H](CC(=O)O)C(=O)N[C@@H](CCCCN)C(=O)N[C@H](C(=O)N[C@@H](Cc1c[nH]cn1)C(=O)N[C@@H](CCC(N)=O)C(=O)N[C@@H](CCC(N)=O)C(=O)N[C@@H](CC(=O)O)C(=O)N[C@@H](Cc1ccccc1)C(=O)N[C@H](C(=O)N[C@@H](CC(N)=O)C(=O)N[C@@H](CCCCNC(=O)CCCCCCCCCCCCCCC(=O)O)C(=O)N[C@@H](CC(C)C)C(=O)N[C@@H](CC(C)C)C(=O)N[C@@H](C)C(=O)N[C@@H](CCC(N)=O)C(=O)N[C@@H](CCCCN)C(N)=O)C(C)C)[C@@H](C)CC [AT185, [hGIP(5-30)NH2[W25K]-C16diacid/25]] (H-TFISDYSIAMDKIHQQDFVNK(C16 diacid)LLAQK-NH2; N-terminus assumed)
Emax (human GIP receptor [1]; COS-7 cells): 18%
EC50 (human GIP receptor [1]; [5]): 100 nM
IC50 (human GIP receptor [2]; [6]): 66.1 nM
Fold change of IC50 versus GIP(5-30)NH2 (human GIP receptor [2]): 2.4
IC50 (human GIP receptor [2]; [4]): 44 nM
Fold change HSA (2%)/Casein (0.1%) (human GIP receptor [3]): 4.7
Binding (+/−HSA) Fold (human GIP receptor [3]): 5.0
Ki (human GIP receptor [3]; presence of 2% HSA): 337 nM
